SMILES strings stand for the structures. Numbers after ± are expanded uncertainties.

The conditions of the data set: 298.15 K; 101.33 kPa; Liquid; Vibrating tube method.
In the case of `CCCCCCCCCCCCCCCC` [hexadecane], the mass density came to 770.31 ± 0.24 kg/m3.

On to `CCCCCCCCCCCCCC` [tetradecane], for which the mass density turned out to be 760.2 ± 0.24 kg/m3.

Regarding `CCCCCOCCCCC` [dipentyl ether], the mass density stood at 779.1 ± 0.24 kg/m3.

For `CCCCCCCCCCCC` [dodecane], the mass density is on record as 745.28 ± 0.25 kg/m3.

Take `CCCCCCCCC(C)=O` [2-decanone]: the mass density is reported as 820.63 ± 0.24 kg/m3.

Source of the values: the NIST ThermoML archive (doi:10.1016/j.jct.2010.11.004).
